Starred links: 1 amine or outer side, 2 acyl side, 3 side chain; linkers in the order of their positions; H or OH if unused. Positions of bridges follow the written chain, without caps; N, C: chain ends. Non-standard residues stand in square brackets, D forms with d. Residues, ends and D or L forms follow the SMILES beside them. Chains are numbered I, II in the order given. Actinocin(9to1) = Cc1c2oc3c(C)ccc(C(=O)[*:1])c3nc-2c(C(=O)[*:2])c(N)c1=O; NMeV = CN[C@H](C(=O)O)C(C)C; Sar = CNCC(=O)O
Tests used:
[1] = tested on: human pancreatic cancerous cell line MIA PaCa-2; experiment: Soft agar growth assay (Alamar Blue), Example 1; type: cell-based; conditions: 240 h, MIA PaCa-2, soft agar, 10 days
Procedure: The effects of vitamins C and K3, alone or in combination, on pancreatic cancer were studied using human pancreatic cancerous cell line MIA PaCa-2. The pancreatic cancerous cells were cultured in DMEM containing 10% FCS and penicillin/streptomycin.
Vitamins C and K3 stock solutions in DMSO were prepared at a concentration of 2 M and 20 mM, respectively. Actinomycin D was used as a reference.
Prior to addition to the pancreatic cancerous cells, stock solutions of the test compounds (vitamins C and K3, and actinomycin D) were diluted in culture medium and 10 μL were added on top of 150 μL of solidified soft agar to diffuse into the soft agar in a 96-well plate. For each well in the 96-well plate, 100 μL of the soft agar bottom layer (0.6% final concentration in complete medium) was poured and left to solidify, and 50 μL of the soft agar top layer (0.4% final concentration) containing the pancreatic cancerous cells (about 5,000 cells/well) were then added on top, solidified. The 96-well plate was incubated overnight at 37° C., 10% CO2. The next day, the test compounds were added at the prescribed final concentrations into the inner wells of the plate. Subsequently, the assays were incubated in cell culture incubators for 10 days. […] Fluorescence intensity was then determined (excitation: 560 nm; emission: 590 nm). […]

AsPC-1 = experiment: Soft agar growth assay (Alamar Blue), Example 2, AsPC-1; type: cell-based, human; conditions: AsPC-1, soft agar, 10 days
Procedure: (§1) A stock solutions (1,000×) of menadione (VK3) were prepared in DMSO and a stock solution of calcium L-ascorbate dihydrate (VC) (1,000×) was prepared in water. All stock solutions were prediluted 1:62.5 first in medium and finally diluted to the final assay concentrations. Actinomycin D was used as a reference.
(§2) Suspension cell culture plates (96-well) were prepared. The soft agar bottom layer (100 μL, 0.6% final concentration in complete medium) was poured and left to solidify. The soft agar top layer (50 μL, 0.4% final concentration) containing the corresponding cells and cell number were then added on top, solidified, and incubated overnight at 37° C., 10% CO2. Next day, the test compounds, DMSO, or actinomycin D were added at predetermined final concentrations. […] Finally, the assay was developed using Alamar Blue and upon 0.5-5 hrs of incubation at 37° C. and fluorescence intensity was determined (excitation: 560 nm; emission: 590 nm). […]
(§3) Raw data were converted into percent soft agar growth relative to high controls (solvent 0.2% DMSO) and low controls (10^−5M staurosporine), which were set to 100% and 0%, respectively. IC50 values were calculated using standard parameters based on the signal of the solvent control as top constraint (100% soft agar growth) and the signal of the Staurosporine control as bottom constraint (0% soft agar growth).

Mia PaCa-2 = experiment: Soft agar growth assay (Alamar Blue), Example 2, Mia PaCa-2; type: cell-based, human; conditions: Mia PaCa-2, soft agar, 8 days
Procedure: as §1, §2, §3

| SMILES | viability at 0.6 µM ([1]; 0.6 μM Vitamin K3 alone) [%] | viability at 6 µM ([1]; 6 μM Vitamin K3 alone) [%] | IC50 (AsPC-1) [nM] | IC50 (Mia PaCa-2) [nM] |
| --- | --- | --- | --- | --- |
| CC1=CC(=O)c2ccccc2C1=O [Vitamin K3, 2-methyl-1,4-naphthoquinone] | 103.2 ± 0.9 | 90.2 ± 12.5 | – | – |
| Cc1c2oc3c(C)ccc(C(=O)N[C@@H]4C(=O)N[C@H](C(C)C)C(=O)N5CCC[C@H]5C(=O)N(C)CC(=O)N(C)[C@@H](C(C)C)C(=O)O[C@@H]4C)c3nc-2c(C(=O)N[C@@H]2C(=O)N[C@H](C(C)C)C(=O)N3CCC[C@H]3C(=O)N(C)CC(=O)N(C)[C@@H](C(C)C)C(=O)O[C@@H]2C)c(N)c1=O [Actinomycin D] (I: T[dV]P[Sar][NMeV] / II: T[dV]P[Sar][NMeV]; ester I:1-I:C, II:1-II:C; linker I:N-II:N via Actinocin(9to1)) | – | – | 2.7 | 0.4 |
